From patent publication US20100130737A1, “Regulating Agent of GPR34 Receptor Function” (TAKEDA PHARMACEUTICAL COMPANY LIMITED, priority 2005, published 2010)
Counter-ions that a name gives are not always drawn.

melting point [°C] | Structure (SMILES)
168 to 170 | N[C@H](Cc1c[nH]c2ccccc12)C(=O)NC1(C(=O)O)Cc2ccc(-c3ccc(Cl)cc3)cc2C1 (stereo partly drawn) (as salt: hydrochloride) [Example B122, 5-(4-Chlorophenyl)-2-(D-tryptophylamino)indan-2-carboxylic acid hydrochloride]
284 to 285 | Cc1nc2ccccc2n1CC(=O)NC1(C(=O)O)Cc2ccc(-c3ccc(Cl)cc3)cc2C1 (stereo not shown) (as salt: hydrochloride) [Example B159, 5-(4-Chlorophenyl)-2-{[(2-methyl-1H-benzimidazol-1-yl)acetyl]amino}indan-2-carboxylic acid hydrochloride]
288 | O=C(Cc1cccnc1)NC1(C(=O)O)Cc2ccc(-c3ccc(Cl)cc3)cc2C1 (stereo not shown) (as salt: hydrochloride) [Example B175, 5-(4-Chlorophenyl)-2-[(pyridin-3-ylacetyl)amino]indan-2-carboxylic acid hydrochloride]
147 to 149 | Cc1c(C(=O)NC(Cc2ccc(OCc3ccc(F)cc3)cc2)C(=O)O)oc2cc(-c3ccc(Cl)cc3)ccc12 (racemic) [Example C117, N-{[6-(4-Chlorophenyl)-3-methyl-1-benzofuran-2-yl]carbonyl}-O-(4-fluorobenzyl)-DL-tyrosine]
211 to 212 | O=C(Cc1ccc(OCc2ccccc2)cc1)Nc1c(C(=O)O)oc2cc(-c3ccc(Cl)cc3)ccc12 [Example A23, 3-({[4-(Benzyloxy)phenyl]acetyl}amino)-6-(4-chlorophenyl)-1-benzofuran-2-carboxylic acid]
205 to 206 | O=C(Cc1ccc(OCc2ccc(F)cc2)cc1)Nc1c(C(=O)O)oc2cc(-c3ccc(Cl)cc3)ccc12 [Example A24, 6-(4-Chlorophenyl)-3-[({4-[(4-fluorobenzyl)oxy]phenyl}acetyl)amino]-1-benzofuran-2-carboxylic acid]
209 to 210 | O=C(CCc1ccc(OCc2ccccc2)cc1)Nc1c(C(=O)O)oc2cc(-c3ccc(Cl)cc3)ccc12 [Example A25, 3-({3-[4-(Benzyloxy)phenyl]propanoyl}amino)-6-(4-chlorophenyl)-1-benzofuran-2-carboxylic acid]
205 to 207 | O=C(CSc1nc2ccccc2s1)NC1(C(=O)O)Cc2ccc(-c3ccc(Cl)cc3)cc2C1 (stereo not shown) [Example B117, 2-{[(1,3-Benzothiazol-2-ylthio)acetyl]amino}-5-(4-chlorophenyl)indan-2-carboxylic acid]
247 | O=C(CN1CCN(c2ccccc2)CC1)NC1(C(=O)O)Cc2ccc(-c3ccc(Cl)cc3)cc2C1 (stereo not shown) [Example B124, 5-(4-Chlorophenyl)-2-{[(4-phenylpiperazine-1-yl)acetyl]amino)indan-2-carboxylic acid]
245 | O=C(Cc1ccccc1OCc1ccccc1)NC1(C(=O)O)Cc2ccc(-c3ccc(Cl)cc3)cc2C1 (stereo not shown) [Example B126, 2-({[2-(Benzyloxy)phenyl]acetyl}amino)-5-(4-chlorophenyl)indan-2-carboxylic acid]

Structure (SMILES) | melting point [°C]
CC(C)(C)OC(=O)NCCC(=O)NC1(C(=O)O)Cc2ccc(-c3ccc(Cl)cc3)cc2C1 (stereo not shown) [Example B118, 2-{[3-(tert-Butoxycarbonylamino)propionyl]amino}-5-(4-chlorophenyl) indan-2-carboxylic acid] | 212 to 214
CC(C)(C)OC(=O)N[C@H](Cc1c[nH]c2ccccc12)C(=O)NC1(C(=O)O)Cc2ccc(-c3ccc(Cl)cc3)cc2C1 (stereo partly drawn) [Example B119, 2-{[N-(tert-Butoxycarbonyl)-D-tryptophyl]amino}-5-(4-chlorophenyl)indan-2-carboxylic acid] | 158
CC(C)(C)OC(=O)N[C@@H](Cc1ccccc1)C(=O)NC1(C(=O)O)Cc2ccc(-c3ccc(Cl)cc3)cc2C1 (stereo partly shown) [Example B120, 2-{[N-(tert-Butoxycarbonyl)phenylalanyl]amino}-5-(4-chlorophenyl)indan-2-carboxylic acid] | 140 to 142
